ChEMBL document CHEMBL4765410, “A cell-penetrant lactam-stapled peptide for targeting eIF4E protein-protein interactions” (Eur J Med Chem, 2020)
Active and inactive are the calls of the source. No cut-off for these calls is given here. Bridge positions count the residues as written; N and C are the ends. Peptide text beside a SMILES is read from it.

How the values were obtained:
[1] = molecular target: T1, Eukaryotic translation initiation factor 4E (Homo sapiens, UniProt P06730); test: Binding affinity to recombinant human 10His-tagged eIF4E expressed in Escherichia coli BL21 (DE3) cells assessed as association constant by surface plasmon resonance analysis
[2] = molecular target: T2, EIF4E/EIF4G1 (Homo sapiens) (UniProt P06730+Q04637); test: Inhibition of eIF4E/eIF4G interaction in human T47D cells incubated for 6 hr by m7GDP cap pull down assay; assay type: cell-based
[3] = molecular target: T1, Eukaryotic translation initiation factor 4E; test: Binding affinity to recombinant human 10His-tagged eIF4E expressed in Escherichia coli BL21 (DE3) cells assessed as binding constant by surface plasmon resonance analysis
[4] = molecular target: T1, Eukaryotic translation initiation factor 4E; test: Inhibition of eIF4E in human MCF7 cells measured up to 42 hrs by m7GDP cap pull down assay; assay type: cell-based; settings: time hrs <=42
MDA-MB-231 = test: Anti-proliferative activity against human MDA-MB-231 cells after 6 days by CellTiter-Glo assay; assay type: functional, cell-based; settings: time 6.0 day
[5] = Drug uptake in cytosol of human HeLa cells stably expressing Halo-tagged-GFP assessed as normalized fluorescence in cytosol incubated for 4 hrs by flow cytometry based CAPA; assay type: ADME, subcellular
[6] = molecular target: T1, Eukaryotic translation initiation factor 4E; test: Inhibition of recombinant human 10His-tagged eIF4E expressed in Escherichia coli BL21 (DE3) cells by catalytic enzyme-linked click chemistry assay
T47D = test: Anti-proliferative activity against human T47D cells after 6 days by CellTiter-Glo assay; assay type: functional, cell-based; settings: time 6.0 day
MCF7 = test: Anti-proliferative activity against human MCF7 cells after 6 days by CellTiter-Glo assay; assay type: functional, cell-based; settings: time 6.0 day
[7] = molecular target: T2, EIF4E/EIF4G1 (Homo sapiens); test: Inhibition of eIF4E/eIF4G interaction in human MDA-MB-231 cells incubated for 6 hr by m7GDP cap pull down assay; assay type: cell-based
[8] = Drug uptake in cytosol of human HeLa cells stably expressing Halo-tagged-GFP assessed as normalized fluorescence in cytosol at 0.74 uM incubated for 4 hrs by flow cytometry based CAPA relative to control; assay type: ADME, subcellular
[9] = molecular target: T1, Eukaryotic translation initiation factor 4E; test: Binding affinity to eIF4E in HEK293 cell lysates assessed as thermal stabilization of protein at 1 to 15 uM incubated for 1 hrs followed by heating at 49 to 52.4 degC for 3 mins by CETSA-based Western blot analysis; assay type: subcellular; settings: dose 1-15 µM
[10] = molecular target: T2, EIF4E/EIF4G1 (Homo sapiens); test: Inhibition of eIF4E/eIF4G interaction in human MCF7 cells incubated for 6 hr by m7GDP cap pull down assay; assay type: cell-based

T1 sequence (P06730 whole entry): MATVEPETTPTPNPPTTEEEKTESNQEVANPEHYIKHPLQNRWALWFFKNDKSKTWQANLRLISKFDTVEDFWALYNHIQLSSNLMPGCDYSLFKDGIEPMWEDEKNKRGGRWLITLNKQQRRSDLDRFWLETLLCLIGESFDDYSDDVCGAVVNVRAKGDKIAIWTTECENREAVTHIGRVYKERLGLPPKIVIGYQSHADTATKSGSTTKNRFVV

Compound | Ka [1] [M⁻¹ s⁻¹] | inhibition [2] | Kd [3] [nM] | Activity [4] | Activity (MDA-MB-231) | Q50 [5] [µM] | IC50 [6] [nM] | Activity (T47D) | Activity (MCF7) | inhibition [7] | Drug uptake [8] [%] | Activity [9] | inhibition [10]
CC[C@H](C)[C@H](NC(=O)[C@H](CCCNC(=N)N)NC(=O)[C@@H](NC(=O)CNC(C)=O)[C@@H](C)O)C(=O)N[C@H](C(=O)N[C@@H](Cc1ccc(O)cc1)C(=O)N[C@@H](CC(=O)O)C(=O)N[C@@H](CCCNC(=N)N)C(=O)N[C@@H](CCCCN)C(=O)N[C@@H](Cc1ccccc1)C(=O)N[C@@H](CC(C)C)C(=O)N[C@@H](CCSC)C(=O)N[C@@H](CCC(=O)O)C(=O)N[C@@H](CS)C(=O)N[C@@H](CCCNC(=N)N)C(=O)N[C@@H](CC(N)=O)C(N)=O)[C@@H](C)CC | 630000 | – | – | – | – | – | – | – | – | – | – | – | –
CC[C@H](C)[C@H](NC(=O)[C@H](CCCNC(=N)N)NC(C)=O)C(=O)N[C@H](C(=O)N[C@@H](Cc1ccc(O)cc1)C(=O)N[C@@H](CC(=O)O)C(=O)N[C@@H](CCCNC(=N)N)C(=O)N[C@H]1CCC(=O)NCCCC[C@@H](C(=O)N[C@@H](CS)C(=O)N[C@@H](CCCNC(=N)N)C(N)=O)NC(=O)[C@H](CCSC)NC(=O)[C@H](CC(C)C)NC(=O)[C@H](Cc2ccccc2)NC1=O)[C@@H](C)CC (Ac-RIIYDREFLMKCR-NH2; lactam 7-11) | 3.1e+06 | Dose-dependent effect | 2.2 | Active | inactive | 1.5 | 6.5 | inactive | inactive | Dose-dependent effect | 20 | Active | Dose-dependent effect
CC[C@H](C)[C@H](NC(=O)[C@H](CCCNC(=N)N)NC(C)=O)C(=O)N[C@H](C(=O)N[C@@H](Cc1ccc(O)cc1)C(=O)N[C@@H](CC(=O)O)C(=O)N[C@@H](CCCNC(=N)N)C(=O)N[C@H]1CCCCNC(=O)CC[C@@H](C(=O)N[C@@H](CS)C(=O)N[C@@H](CCCNC(=N)N)C(N)=O)NC(=O)[C@H](CCSC)NC(=O)[C@H](CC(C)C)NC(=O)[C@H](Cc2ccccc2)NC1=O)[C@@H](C)CC (Ac-RIIYDRKFLMECR-NH2; lactam 7-11) | 580000 | – | 7.2 | – | – | 0.25 | 22 | – | – | – | 84 | inactive | –
